The source of these data is patent publication US9353081B2, “Bicyclic dihydroquinoline-2-one derivatives” (Hoffmann-La Roche Inc., priority 2011, dated 2016).

Structures can show the parent of a compound that is named as a salt.

One experiment has as its target human CYP11B2 (Homo sapiens (Human), UniProt P19099). Description: G-402 cellular enzyme assay, human CYP11B2 (aldosterone release, HTRF). Particulars: G-402 cells expressing human CYP11B2; 1 μM Deoxycorticosterone. It is filed as cell-based. In general terms: TR-FRET usually uses a lanthanide donor and a delayed reading to cut background.
For another experiment, the target named is human CYP11B1 (Homo sapiens (Human), UniProt P15538). Description: G-402 cellular enzyme assay, human CYP11B1 (cortisol release, HTRF). The experiment is classed as cell-based. The following applies: G-402 cells expressing human CYP11B1; 1 μM Deoxycortisol.
Sequence of human CYP11B1 (P15538 25-503): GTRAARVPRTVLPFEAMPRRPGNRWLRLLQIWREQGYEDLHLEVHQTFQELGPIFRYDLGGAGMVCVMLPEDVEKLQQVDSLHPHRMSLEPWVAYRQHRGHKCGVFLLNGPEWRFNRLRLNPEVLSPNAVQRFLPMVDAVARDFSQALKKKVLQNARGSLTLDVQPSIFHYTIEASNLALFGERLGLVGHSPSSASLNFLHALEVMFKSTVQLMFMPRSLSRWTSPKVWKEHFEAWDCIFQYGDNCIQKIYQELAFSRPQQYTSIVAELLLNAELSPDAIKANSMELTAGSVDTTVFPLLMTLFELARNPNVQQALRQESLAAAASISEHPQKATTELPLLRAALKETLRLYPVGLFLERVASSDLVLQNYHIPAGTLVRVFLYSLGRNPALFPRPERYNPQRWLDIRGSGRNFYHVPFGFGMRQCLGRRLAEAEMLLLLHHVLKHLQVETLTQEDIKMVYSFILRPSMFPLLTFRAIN
In experiment [1] the test system is rats with experimental heart failure. Particulars: cited from earlier work.
Experiment [2] relates to rat model of chronic kidney disease. The following applies: cited from earlier work; for plasma aldosterone: FAD286: 4 weeks of treatment, spironolactone: 4 and 8 weeks of treatment; for angiotensin II and salt-stimulated PAI-1 mRNA expression in the aorta and the heart / cardiac and aortic medial hypertrophy / renal effects of angiotensin II and high salt (albuminuria, azotemia, renovascular hypertrophy, glomerular injury, PAI-1 and osteopontin mRNA, tubulointerstitial fibrosis): rat CKD model.

For experiment [3], the system named is patients with primary aldosteronism. The following applies: cited from earlier work.

Sequence of human CYP11B2 (P19099 25-503): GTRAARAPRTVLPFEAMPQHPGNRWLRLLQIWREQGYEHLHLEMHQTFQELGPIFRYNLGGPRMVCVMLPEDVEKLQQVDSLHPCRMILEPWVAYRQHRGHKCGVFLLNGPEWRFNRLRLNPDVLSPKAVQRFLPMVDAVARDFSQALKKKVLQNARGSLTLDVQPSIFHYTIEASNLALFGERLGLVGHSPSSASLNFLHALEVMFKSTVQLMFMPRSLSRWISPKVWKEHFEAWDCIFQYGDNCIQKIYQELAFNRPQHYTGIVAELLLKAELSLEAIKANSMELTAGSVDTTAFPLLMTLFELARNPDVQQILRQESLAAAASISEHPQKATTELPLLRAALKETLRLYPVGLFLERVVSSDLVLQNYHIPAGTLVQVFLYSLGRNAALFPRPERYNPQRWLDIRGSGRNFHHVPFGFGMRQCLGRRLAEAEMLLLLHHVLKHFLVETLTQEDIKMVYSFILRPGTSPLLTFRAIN

On to `CN1C(=O)CCc2cc(-c3cncc4c3CCCN4CCNC(=O)OC(C)(C)C)ccc21` [Example 11, {2-[5-(1-Methyl-2-oxo-1,2,3,4-tetrahydro-quinolin-6-yl)-3,4-dihydro-2H-[1,7]naphthyridin-1-yl]-ethyl}-carbamic acid tert-butyl ester], for which the EC50 (in general, the concentration that produces a half-maximal response) at human CYP11B2 turned out to be 23 nM; at human CYP11B1, 420 nM.

For `CN1C(=O)CCc2cc(-c3cncc4c3CCCN4CCN)ccc21` [Example 12, 6-[1-(2-Amino-ethyl)-1,2,3,4-tetrahydro-[1,7]naphthyridin-5-yl]-1-methyl-3,4-dihydro-1H-quinolin-2-one hydrochloride], the EC50 on human CYP11B2 amounted to 4 nM; on human CYP11B1, 1880 nM.

In the case of `CCC(=O)NCCN1CCCc2c(-c3ccc4c(c3)CCC(=O)N4C)cncc21` [Example 13, N-{2-[5-(1-Methyl-2-oxo-1,2,3,4-tetrahydro-quinolin-6-yl)-3,4-dihydro-2H-[1,7]naphthyridin-1-yl]-ethyl}-propionamide], the figures for the EC50 on human CYP11B2 and at human CYP11B1 were 14 nM and 1810 nM, respectively.

As for `CCS(=O)(=O)NCCN1CCCc2c(-c3ccc4c(c3)CCC(=O)N4C)cncc21` [Example 14, N-(2-(5-(1-Methyl-2-oxo-1,2,3,4-tetrahydroquinolin-6-yl)-3,4-dihydro-1,7-naphthyridin-1(2H)-yl)ethyl)ethanesulfonamide], the figures for the half-maximal effective concentration (EC50) on human CYP11B2 and on human CYP11B1 were 11 nM and 210 nM, respectively.

On to `CC(O)C(=O)NC1CCCc2c(-c3ccc4c(c3)CCC(=O)N4C)cncc21` [Example 15, (2R,S)-2-Hydroxy-N-[(4R,S)-4-(1-methyl-2-oxo-1,2,3,4-tetrahydroquinolin-6-yl)-5,6,7,8-tetrahydroisoquinolin-8-yl]propanamide], for which the EC50 was 77.3 nM on human CYP11B2 and 574 nM on human CYP11B1.

For the compound `C[C@@H](O)C(=O)NC1CCCc2c(-c3ccc4c(c3)CCC(=O)N4C)cncc21` (stereo partly drawn) [Example 16, (2R)-2-Hydroxy-N-((4R,S)-4-(1-methyl-2-oxo-1,2,3,4-tetrahydroquinolin-6-yl)-5,6,7,8-tetrahydroisoquinolin-8-yl)propanamide], the half-maximal effective concentration (EC50) at human CYP11B2 is 30.8 nM; on human CYP11B1 it was 1050 nM.

In the case of `C[C@H](O)C(=O)NC1CCCc2c(-c3ccc4c(c3)CCC(=O)N4C)cncc21` (stereo partly drawn) [Example 17, (2S)-2-Hydroxy-N-((4R,S)-4-(1-methyl-2-oxo-1,2,3,4-tetrahydroquinolin-6-yl)-5,6,7,8-tetrahydroisoquinolin-8-yl)propanamide], the figures for the concentration for a half-maximal effect (EC50) at human CYP11B2 and at human CYP11B1 were 31.6 nM and 885 nM, respectively.

For `CN1C(=O)CCc2cc(-c3cncc4c3CCC[C@H]4N)ccc21` [Example 61, (R)-6-(8-Amino-5,6,7,8-tetrahydroisoquinolin-4-yl)-1-methyl-3,4-dihydroquinolin-2(1H)-one], the 50% effective concentration (EC50) at human CYP11B2 was 5.6 nM; at human CYP11B1, 450 nM.

Take `CN1C(=O)CCc2cc(-c3cncc4c3CCC[C@H]4NC(=O)c3ncccc3Cl)ccc21` [Example 62, 3-Chloro-pyridine-2-carboxylic acid [(R)-4-(1-methyl-2-oxo-1,2,3,4-tetrahydro-quinolin-6-yl)-5,6,7,8-tetrahydro-isoquinolin-8-yl]-amide]: the half-maximal effective concentration (EC50) on human CYP11B2 was found to be 5.3 nM; at human CYP11B1, 558 nM.

For `CC(=O)N[C@@H]1CCCc2c(-c3ccc4c(c3)CCC(=O)N4C)cncc21` [Example 63, N—[(R)-4-(1-Methyl-2-oxo-1,2,3,4-tetrahydro-quinolin-6-yl)-5,6,7,8-tetrahydro-isoquinolin-8-yl]-acetamide], the EC50 was 4.8 nM on human CYP11B2 and 1190 nM on human CYP11B1.

Consider `CN1C(=O)CCc2cc(-c3cncc4c3CCC[C@H]4NC(=O)C3CC3)ccc21` [Example 64, Cyclopropanecarboxylic acid [(R)-4-(1-methyl-2-oxo-1,2,3,4-tetrahydro-quinolin-6-yl)-5,6,7,8-tetrahydro-isoquinolin-8-yl]-amide], for which the figures for the half-maximal effective concentration (EC50) on human CYP11B2 and at human CYP11B1 were 46.2 nM and 2360 nM, respectively.

For `CN1C(=O)CCc2cc(-c3cncc4c3CCC[C@H]4NS(C)(=O)=O)ccc21` [Example 65, N—[(R)-4-(1-Methyl-2-oxo-1,2,3,4-tetrahydro-quinolin-6-yl)-5,6,7,8-tetrahydro-isoquinolin-8-yl]-methanesulfonamide], the EC50 worked out at 17 nM at human CYP11B2 and 1930 nM at human CYP11B1.

As to `CN1C(=O)CCc2cc(-c3cncc4c3CCC[C@H]4NS(=O)(=O)C3CC3)ccc21` [Example 66, Cyclopropanesulfonic acid [(R)-4-(1-methyl-2-oxo-1,2,3,4-tetrahydro-quinolin-6-yl)-5,6,7,8-tetrahydro-isoquinolin-8-yl]-amide], the values for the EC50 at human CYP11B2 and at human CYP11B1 were 35.5 nM and 319 nM, respectively.

As for `CN1C(=O)CCc2cc(-c3cncc4c3CCCC4=O)ccc21` [Example 70, 1-Methyl-6-(8-oxo-5,6,7,8-tetrahydro-isoquinolin-4-yl)-3,4-dihydro-1H-quinolin-2-one], the half-maximal effective concentration (EC50) on human CYP11B2 worked out at 15.7 nM; on human CYP11B1, 7170 nM.

In the case of `N#Cc1ccc(C2CCCc3cncn32)cc1` (stereo not drawn) [FAD286], in experiment [1], the “blood pressure and cardiovascular function and structure” value was “improved”; the “kidney function and morphology” value is on record as “improve”. Moreover, in experiment [2], the plasma aldosterone entry is reported as “reduced”; the “angiotensin II and salt-stimulated PAI-1 mRNA expression in the aorta and the heart” value is “not”; the “cardiac and aortic medial hypertrophy” value was “attenuated”; the “renal effects of angiotensin II and high salt (albuminuria, azotemia, renovascular hypertrophy, glomerular injury, PAI-1 and osteopontin mRNA, tubulointerstitial fibrosis)” value is given as “prevented these renal effects”.

`N#Cc1ccc([C@H]2CCc3cncn32)c(F)c1` [LCI699]: in experiment [3], the blood pressure entry was “mildly decreased”; the hypokalemia result is “corrected”; the “selectivity (effects on the glucocorticoid axis, cortisol synthesis)” value is listed as “poor selectivity”. The circulating aldosterone levels entry in experiment [3] (oral) is recorded as “significantly lower”.

On to `CC(=O)S[C@@H]1CC2=CC(=O)CC[C@]2(C)[C@H]2CC[C@@]3(C)[C@@H](CC[C@@]34CCC(=O)O4)[C@H]12` [spironolactone], for which, in experiment [2], the plasma aldosterone result is recorded as “increased”; the “angiotensin II and salt-stimulated PAI-1 mRNA expression in the aorta and the heart” value was “enhanced”; the “cardiac and aortic medial hypertrophy” value is “attenuated”; the “renal effects of angiotensin II and high salt (albuminuria, azotemia, renovascular hypertrophy, glomerular injury, PAI-1 and osteopontin mRNA, tubulointerstitial fibrosis)” value was “prevented these renal effects”.
